We go through seven compounds from patent publication US11965122B2, “Method for visually enhancing the experience of an audience during a performance” (PROLUME, LTD., priority 2012, dated 2024).

The test system of data set [1] is Rabbit conjunctiva. The data set is described as follows: Coelenterazine applied directly in Rabbit conjunctiva. Type of data set: in vivo. To be noted: multiple sets applied directly in Rabbit conjunctiva, even at high concentrations. From the text: Denuded and scratched corneal surfaces should release more calcium then a sealed intact healthy cornea and a CAP may be used alone or in conjunction with fluorescein dye to reveal the exact location of the foreign body or severity of the ocular corneal scratch.

The test system of data set [2] is calcium activated photoprotein (CAP). The conditions noted are these: cited from earlier work; for RLC*: relative to native = 1.00; for Relative Intensity †: relative to native = 1.
The test system of data set [3] is Renilla muelleri Luciferase. Briefly: Luminescent activity of Renilla muelleri Luciferase with Coelenterazine analogues. Type of data set: biochemical. The conditions noted are these: integrated over 10 sec. The text has this:
FIG. 21 is luminescent activity of Renilla muelleri Luciferase with methoxy eCTZ and methoxy eCTZf.

A short description of data set [4]: Brightness of ultraviolet producing Coelenterazine analog. From the text:
Diagnosis of conjunctiva pathology and corneal scratches and other acute ocular emergencies such as foreign objects is best performed using an ultraviolet lamp and fluorescein dye. However there are situations, such as camping, or in poorer nations where electricity and ultraviolet lamps are not available. Another embodiment of this invention is a kit containing fluorescein dye, and a CARP manufactured using a ultraviolet producing Coelenterazine analog such as 400a or better because it is much brighter, is methoxy-eCoelenterazine analog contained and stabilized within a freeze dried CARP which can be used for eye examinations in the field.

As to `Oc1ccc(Cc2nc3c(Cc4ccccc4)nc(-c4ccc(O)cc4)cn3c2O)cc1` [Coelenterazine], the ocular injury result in data set [1] is given as “failed to produce any ocular injury”. In addition, in data set [2], the “Half-Rise Time ‡” value is 6 to 30 ms, the “RLC*” value is recorded as 1.00 and the “Relative Intensity †” value is reported as 1.

For the compound `O=c1c(Cc2ccc(O)cc2)nc2c(CC3CCCC3)[nH]c(-c3ccc(O)cc3)cn1-2` [cp], in data set [2], the “Half-Rise Time ‡” value was 2 to 5 ms, the “RLC*” value is 0.63 and the “Relative Intensity †” value is on record as 28.

Regarding `O=c1c(Cc2ccc(F)cc2)nc2c(Cc3ccccc3)[nH]c(-c3ccc(O)cc3)cn1-2` [f], in data set [2], the “Half-Rise Time ‡” value is 6 to 30 ms, the “RLC*” value was 0.80 and the “Relative Intensity †” value was 20.

Turning to `O=c1c(Cc2ccccc2)nc2c(Cc3ccccc3)[nH]c(-c3ccc(O)cc3)cn1-2` [h], in data set [2], the “Half-Rise Time ‡” value was 6 to 30 ms, the “RLC*” value is given as 0.75 and the “Relative Intensity †” value was 16.

Take `O=c1c(Cc2ccccc2)nc2c(CC3CCCC3)[nH]c(-c3ccc(O)cc3)cn1-2` [hcp]: in data set [2], the “Half-Rise Time ‡” value is 2 to 5 ms, the “RLC*” value is on record as 0.65 and the “Relative Intensity †” value is 500.

With Coelenterazine-Iodide, the “duration of light emission” value in data set [2] (CAP manufactured with the analog, delayed spring-opening, over tens of minutes) was “prolongs light emission”.

Take Methoxy-e-Coelenterazine [Methoxy eCTZ]: the “light-output relative to methoxy eCTZf” value in data set [3] is listed as “approx. two-fold”. The “brightness compared with 400a” value in data set [4] is “much brighter”.
